PubChem BioAssay AID1963433 (Molecular Pharmacology Branch, DTP, NCI, 2024)
pIC50: −log10 of the molar value.

Test system: 772245-204-R-J1-PDC complex spheroid growth
Test: Anticancer human tumor 772245-204-R-J1-PDC patient-derived rhabdomyosarcoma cell line growth inhibition [Asc]
Settings: for pIC50: curve of first compound; for viability, T/C: stronger effect = lower value
Procedure: Multicellular complex tumor spheroid response to apoptosis pathway targeting inhibitors Alrizomadlin, Pelcitoclax, and Dasminapant in combination with a variety of drugs and investigational agents in selected tumor cell lines
The MDM2 inhibitor alrizomadlin, the Bcl-2/Bcl-xL inhibitor pelcitoclax, and the IAPs inhibitor dasminapant were evaluated both individually and in combination with standard of care and investigational anticancer small molecules within a complex spheroid model of solid tumors. . Complex spheroids include a stromal component modeled by human endothelial cells (HUVEC) and fibroblasts modeled by human mesenchymal stem cells (MSCs). The concentration ranges selected for each drug and investigational agent were based upon clinically achievable concentrations if the clinical Cmax of the agent was known.
Compounds. The drugs and investigational agents: alrizomadlin (APG-115; NSC831270), pelcitoclax (APG-1252; NSC835773), dasminapant (APG-1387;NSC834197), TAK-243 (NSC785004), copanlisib (NSC809693), olaparib (NSC753686), talazoparib (NSC767125), cobimetinib (NSC 768068), eltanexor (KPT-8602, NSC 794443), abemaciclib (NSC 768073), sotorasib (NSC818433), adagrasib (NSC 831453), MRTX-1133 (NSC 836407), Iadademestat (ORY1001, NSC 806812), and RMC-4630 (NSC839698), were obtained from the NCI Developmental Therapeutics Program Chemical Repository. The FDA-approved anticancer drug set is available from the Developmental Therapeutics Program at https://dtp.cancer.gov/organization/dscb/obtaining/available plates.htm. […] The stock solutions were prepared in dimethyl sulfoxide (DMSO, Sigma-Aldrich, St. Louis, MO, cat. D2650) at 800-fold the tested concentration and stored at -70 degrees C prior to their use. All drugs and investigational agents were tested over a range starting from a high concentration at or near the clinical Cmax and decreasing in half-log increments. If the clinical Cmax for an agent had not been determined, the highest concentration tested was 10 microM.
The patient-derived cancer (PDC) cell lines include five colon adenocarcinomas: 186277-243-T-J2-PDC, 616215-338-R-J1-PDC, 439559-082-T-J2-PDC, 463943-066-T-J2-PDC, and 519858-162-T-J1-PDC; three pancreatic carcinomas: 323965-272-R-J2-PDC, 521955-158-R6-J3-PDC, and 521955-158-R2-J5-PDC; two uterine sarcomas: 327498-152-R-J2-PDC and 993429-296-R-J1-PDC; two rhabdomyosarcomas: 755483-174-R-J1-PDC and 772245-204-R-J1-PDC; two soft tissue sarcomas: 126254-015-R-J1-PDC and 494315-158-R-J1-PDC; two malignant fibrous histiocytomas: 317291-083-R-J1-PDC and 596521-263-R-J1-PDC; two breast carcinomas: 171881-019-R-J1-PDC and 885512-296-R-J2-PDC; and one ovarian carcinoma: 6556581-035-R-J-PDC were obtained from the NCI PDMR, (https://pdmr.cancer.gov). The established cell lines HSSY-2 synovial sarcoma (RRID:CVCL 8719), SYO-1 synovial sarcoma (RRID:CVCL_7146), MPNST malignant peripheral neural sheath tumor were obtained from the Sloan Kettering Institute. The following established cell lines were purchased from the American Type Culture Collection (ATCC, Manassas, VA), Sor the received from the NCI repository:, PANC-1 pancreatic carcinoma (CRL-1469, RRID:CVCL_0480), OVCAR-5 ovarian carcinoma (RRID:CVCL_1628), OVCAR-8 ovarian carcinoma (RRID:CVCL_1629), , MCF-7 breast carcinoma (CRL-12584, RRID:CVCL_0031), MDA-MB-231 breast carcinoma (CRL-12532, RRID:CVCL_0062), NCI-H1876 small cell lung carcinoma (CRL-5902, RRID:CVCL_1503), NCI-H510A small cell lung carcinoma (HTB-184, RRID:CVCL_1565), NCI-H1417 (CRL-5869, RRID:CVCL_1469), and NCI-H196 small cell lung carcinoma (CRL-5823, RRID:CVCL_1509). Dr. Peter Houghton (Greehey Children's Cancer Research Institute, University of Texas Health Science Center, San Antonio, TX) provided Rh-18 rhabdomyosarcoma (RRID:CVCL_1659). Pooled donor human umbilical vein endothelial cells (HUVEC, Lonza, cat. CC-2519) and human mesenchymal stem cells (hMSC, Lonza, cat. PT-2501) were purchased from Lonza (Walkersville, MD).
Cell Culture. […]

[1] = second compound 0.03 µM, first compound 0.00316 µM
[2] = second compound 0.03 µM, first compound 0.01 µM
[3] = second compound 0.03 µM, first compound 0.0316 µM
[4] = second compound 0.03 µM, first compound 0.1 µM
[5] = second compound 0.0949 µM, first compound 0.00316 µM
[6] = second compound 0.0949 µM, first compound 0.01 µM
[7] = second compound 0.0949 µM, first compound 0.0316 µM
[8] = second compound 0.0949 µM, first compound 0.1 µM
[9] = second compound 0.3 µM, first compound 0.00316 µM
[10] = second compound 0.3 µM, first compound 0.01 µM
[11] = second compound 0.3 µM, first compound 0.0316 µM
[12] = second compound 0.3 µM, first compound 0.1 µM
[13] = second compound 0.949 µM, first compound 0.00316 µM
[14] = second compound 0.949 µM, first compound 0.01 µM
[15] = second compound 0.949 µM, first compound 0.0316 µM
[16] = second compound 0.949 µM, first compound 0.1 µM
[17] = second compound 3 µM, first compound 0.00316 µM
[18] = second compound 3 µM, first compound 0.01 µM
[19] = second compound 3 µM, first compound 0.0316 µM
[20] = second compound 3 µM, first compound 0.1 µM
[21] = second compound 0.03 µM, first compound 0.316 µM
[22] = second compound 0.03 µM, first compound 1 µM
[23] = second compound 0.0949 µM, first compound 0.316 µM
[24] = second compound 0.0949 µM, first compound 1 µM
[25] = second compound 0.3 µM, first compound 0.316 µM
[26] = second compound 0.3 µM, first compound 1 µM
[27] = second compound 0.949 µM, first compound 0.316 µM
[28] = second compound 0.949 µM, first compound 1 µM
[29] = second compound 3 µM, first compound 0.316 µM
[30] = second compound 3 µM, first compound 1 µM
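Note: compound exposure lasted seven days.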
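Throughout, for viability, T/C: 100% = DMSO vehicle control viability.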

SMILES | pIC50 (second compound 0.03 µM) | pIC50 (second compound 0.0949 µM) | pIC50 (second compound 0.3 µM) | pIC50 (second compound 0.949 µM) | pIC50 (second compound 3 µM) | viability, T/C [1] | viability, T/C [2] | viability, T/C [3] | viability, T/C [4] | viability, T/C [5] | viability, T/C [6] | viability, T/C [7] | viability, T/C [8] | viability, T/C [9] | viability, T/C [11] | viability, T/C [12] | viability, T/C [15] | viability, T/C [16] | viability, T/C [19] | viability, T/C [20] | other results
Cn1ncnc1[C@H]1c2n[nH]c(=O)c3cc(F)cc(c23)N[C@@H]1c1ccc(F)cc1 + CCN1C(C(=O)NC23CCC(C(=O)O)(CC2)CC3)C(c2cccc(Cl)c2F)C2(C(=O)Nc3cc(Cl)ccc32)C12CCCCC2 | < 7.00 | < 7.00 | < 7.00 | < 7.00 | < 7.00 | 95% | 85.2% | 86.3% | 81.9% | 110% | 88.2% | 88.5% | 91.9% | 107% | 93% | 89.6% | 75.4% | 76.6% | 70.8% | 62.5% | viability, T/C (second compound 0.03 µM, first compound 0.000316 µM): 118%; viability, T/C (second compound 0.03 µM, first compound 0.001 µM): 106%; viability, T/C (second compound 0.0949 µM, first compound 0.000316 µM): 103%; viability, T/C (second compound 0.0949 µM, first compound 0.001 µM): 112%; viability, T/C (second compound 0.3 µM, first compound 0.000316 µM): 116%; viability, T/C (second compound 0.3 µM, first compound 0.001 µM): 115%; viability, T/C [10]: 95.2%; viability, T/C (second compound 0.949 µM, first compound 0.000316 µM): 94.2%; viability, T/C (second compound 0.949 µM, first compound 0.001 µM): 99.1%; viability, T/C [13]: 119%; viability, T/C [14]: 92.3%; viability, T/C (second compound 3 µM, first compound 0.000316 µM): 82.7%; viability, T/C (second compound 3 µM, first compound 0.001 µM): 94%; viability, T/C [17]: 75.8%; viability, T/C [18]: 65.9%
O=C(c1cc(Cc2n[nH]c(=O)c3ccccc23)ccc1F)N1CCN(C(=O)C2CC2)CC1 + CCN1C(C(=O)NC23CCC(C(=O)O)(CC2)CC3)C(c2cccc(Cl)c2F)C2(C(=O)Nc3cc(Cl)ccc32)C12CCCCC2 | < 5.00 | < 5.00 | < 5.00 | < 5.00 | < 5.00 |  |  | 102% | 113% |  |  | 108% | 113% |  | 121% | 115% | 101% | 92.9% | 77.2% | 80.4% | viability, T/C [21]: 93.7%; viability, T/C [22]: 95.2%; viability, T/C (second compound 0.03 µM, first compound 3.16 µM): 87.3%; viability, T/C (second compound 0.03 µM, first compound 10 µM): 70.1%; viability, T/C [23]: 97.2%; viability, T/C [24]: 100%; viability, T/C (second compound 0.0949 µM, first compound 3.16 µM): 79.7%; viability, T/C (second compound 0.0949 µM, first compound 10 µM): 72%; viability, T/C [25]: 102%; viability, T/C [26]: 93.1%; viability, T/C (second compound 0.3 µM, first compound 3.16 µM): 92%; viability, T/C (second compound 0.3 µM, first compound 10 µM): 69.2%; viability, T/C [27]: 99.6%; viability, T/C [28]: 88.3%; viability, T/C (second compound 0.949 µM, first compound 3.16 µM): 73.3%; viability, T/C (second compound 0.949 µM, first compound 10 µM): 63.8%; viability, T/C [29]: 84.1%; viability, T/C [30]: 74.7%; viability, T/C (second compound 3 µM, first compound 3.16 µM): 55.8%; viability, T/C (second compound 3 µM, first compound 10 µM): 62.5%
O=C(c1ccc(F)c(F)c1Nc1ccc(I)cc1F)N1CC(O)([C@@H]2CCCCN2)C1 + CCN1C(C(=O)NC23CCC(C(=O)O)(CC2)CC3)C(c2cccc(Cl)c2F)C2(C(=O)Nc3cc(Cl)ccc32)C12CCCCC2 | < 6.00 | < 6.00 | < 6.00 | < 6.00 | < 6.00 | 115% | 109% | 108% | 112% | 113% | 91.5% | 108% | 105% | 102% | 98.6% | 106% | 115% | 98.5% | 85.1% | 100% | viability, T/C [21]: 100%; viability, T/C [22]: 50.8%; viability, T/C [23]: 115%; viability, T/C [24]: 70.6%; viability, T/C [10]: 121%; viability, T/C [25]: 106%; viability, T/C [26]: 73.9%; viability, T/C [13]: 110%; viability, T/C [14]: 109%; viability, T/C [27]: 105%; viability, T/C [28]: 62.3%; viability, T/C [17]: 90.9%; viability, T/C [18]: 87.1%; viability, T/C [29]: 88.5%; viability, T/C [30]: 53.3%
